Measurements as given in US9573954B2, “Pyrazolopyrimidine compounds” (University Health Network, priority 2012, dated 2017).

Tests used:
[1] = test system: ovarian cancer cells (PA-1); experiment: Cancer cell line growth inhibition, Sulforhodamine B assay, PA-1; type: cell-based; conditions: 120 h; Table 2; PA-1, 5 days, SRB; read-out: Cancer Cell Line GI50 Range PA-1
Protocol: (§1) Breast cancer cells (MDA-MB-231 and MDA-MB-468), colon cancer cells (HCT116) and ovarian cancer cells (PA-1 and OVCAR-3) were seeded (1000 to 4000 in 80 μl per well depending on the cell growth rate) into 96 well plates 24 hours before compound overlay. Compounds were prepared as 10 mM stock solutions in 100% DMSO which were diluted with DMEM (Dulbecco's Modified Eagle's Medium) cell growth Medium (Invitrogen, Burlington, ON, Canada) containing 10% FBS (Fetal Bovine Serum) to concentrations ranging from 50 nM to 250 μM. Aliquots (20 μl) from each concentration were overlaid to 80 μl of the pre-seeded cells in the 96 well plates to make final concentrations of 10 nM to 50 μM. The cells were cultured for 5 days before the Sulforhodamine B assay (SRB) was performed to determine the compound's cell growth inhibition activity.
(§2) Sulforhodamine B (purchased from Sigma, Oakville, ON, Canada) is a water-soluble dye that binds to the basic amino acids of the cellular proteins. Thus, colorimetric measurement of the bound dye provides an estimate of the total protein mass that is related to the cell number. the cells are fixed in situ by gently aspirating off the culture media and adding 50 μl ice cold 10% Trichloroacetic Acid (TCA) per well and incubate at 4° C. for 30-60 min, The plates are washed with H2O five times and allowed to air dry for 5 min. Addition of 50 μl 0.4% (w/v) SRB solution in 1% (v/v) acetic acid to each well and incubation for 30 min at RT completes the staining reaction. Following staining, plates are washed four times with 1% acetic acid to remove unbound dye and then allowed to air dry for 5 min. The stain is solubilized with 100 μl of 10 mM Tris pH 10.5 per well. Absorbance is read at 570 nm.
(§3) The percentage (%) of relative growth inhibition was calculated by comparing to DMSO treated only cells (100%). GI50's were determined for compounds with cytotoxic activity. The GI50 was calculated using GraphPad PRISM software (GraphPad Software, Inc., San Diego, Calif., USA).
In Table 1 below, GI50 value ranges for compound examples against breast cancer cell lines (MDA-MB-468), colon cancer cell lines (HCT116) and ovarian cancer cell lines (PA-1) are given.
(§4) In Table 2 below, GI50 value ranges for compound examples against breast cancer cell lines (MDA-MB-231), colon cancer cell lines (HCT116) and ovarian cancer cell lines (PA-1) are given.

[2] = test system: Ovarian 2393A tumor initiating cells; experiment: Tumor-initiating cell growth inhibition, Alamar Blue assay, ovarian TICs; type: cell-based; conditions: 144 h; Table 2; ovarian TICs, 6 days, Alamar Blue; read-out: Tumor Initiating Cell GI50 Range Ovarian 2393A
Procedure, shortened: (§5)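 Colon TICs (4,000/well, non-TC plates) and ovarian TICs (1,000/well, TC plates) kept in serum-free DMEM:F12 with B-27, heparin, bFGF and EGF. Compound added after 24 h at 0.1% DMSO, then 9 days (colon) or 6 days (ovarian) at 37° C. GI50 from Alamar Blue fluorescence (ex 544/em 590) after 4 h.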

[3] = test system: breast cancer cells (MDA-MB-231); experiment: Cancer cell line growth inhibition, Sulforhodamine B assay, MDA-MB-231; type: cell-based; conditions: Homo sapiens, 120 h; Table 2; MDA-MB-231, 5 days, SRB; read-out: Cancer Cell Line GI50 Range MDA-MB-231
Protocol: as §1, §2, §3, §4

[4] = biological target: T1, human TTK (Homo sapiens, UniProt P33981); experiment: TTK inhibition assay (indirect ELISA); type: biochemical; conditions: Table 2; 16 μM ATP (asterisk); read-out: TTK IC50 Range
T1 construct: Active TTK was purchased from Invitrogen as an amino terminal GST fusion of full length human TTK; purchased Invitrogen
T1 sequence (P33981 1-857): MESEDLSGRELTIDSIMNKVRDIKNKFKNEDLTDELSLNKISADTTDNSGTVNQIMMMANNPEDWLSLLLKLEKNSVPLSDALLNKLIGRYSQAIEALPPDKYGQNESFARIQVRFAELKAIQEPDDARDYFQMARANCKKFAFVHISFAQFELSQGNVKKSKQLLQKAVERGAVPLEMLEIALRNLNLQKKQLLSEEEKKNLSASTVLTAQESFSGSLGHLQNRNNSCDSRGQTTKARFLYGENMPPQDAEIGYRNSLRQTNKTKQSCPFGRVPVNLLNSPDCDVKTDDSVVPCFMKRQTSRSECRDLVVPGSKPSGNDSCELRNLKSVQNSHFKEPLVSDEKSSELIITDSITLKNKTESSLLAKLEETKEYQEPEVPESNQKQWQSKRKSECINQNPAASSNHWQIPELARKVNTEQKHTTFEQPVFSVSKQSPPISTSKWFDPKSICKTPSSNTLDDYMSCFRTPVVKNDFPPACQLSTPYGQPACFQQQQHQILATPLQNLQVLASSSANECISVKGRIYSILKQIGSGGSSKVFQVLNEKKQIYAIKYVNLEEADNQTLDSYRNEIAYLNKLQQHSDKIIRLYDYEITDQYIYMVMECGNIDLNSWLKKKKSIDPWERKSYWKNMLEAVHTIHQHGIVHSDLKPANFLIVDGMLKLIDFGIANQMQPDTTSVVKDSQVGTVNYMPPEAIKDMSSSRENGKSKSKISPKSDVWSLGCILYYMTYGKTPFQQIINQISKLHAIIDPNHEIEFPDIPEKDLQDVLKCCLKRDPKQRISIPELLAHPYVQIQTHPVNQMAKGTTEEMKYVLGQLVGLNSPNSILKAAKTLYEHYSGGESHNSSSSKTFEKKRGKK
Procedure, shortened: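 Activity detected by indirect ELISA after compounds sat with full-length GST-TTK for 5 min prior to starting the reaction with ATP. IC50 came from a four-parameter logistic curve of % inhibition, calculated against background and uninhibited control wells.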

[5] = test system: Colon 12 tumor initiating cells; experiment: Tumor-initiating cell growth inhibition, Alamar Blue assay, colon TICs; type: cell-based; conditions: 216 h; Table 2; colon TICs, 9 days, Alamar Blue; read-out: Tumor Initiating Cell GI50 Range Colon 12
Procedure, shortened: as §5

[6] = test system: colon cancer cells (HCT116); experiment: Cancer cell line growth inhibition, Sulforhodamine B assay, HCT116; type: cell-based; conditions: Homo sapiens, HCT-116, 120 h, Table 2; HCT116, 5 days, SRB; read-out: Cancer Cell Line GI50 Range HCT116
Procedure, shortened: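 GI50 is calculated from growth inhibition relative to DMSO controls, using TCA-fixed, SRB-stained protein mass read at 570 nm. Compound, 10 nM–50 μM final in 10% FBS DMEM, was applied for 5 days to HCT116 cells that had been plated 24 h before at 1000–4000/well.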

SMILES | GI50 [1] [nM] | GI50 [2] [nM] | GI50 [3] [nM] | IC50 [4] [nM] | GI50 [5] [nM] | GI50 [6] [nM]
Cc1cc(-c2cnn3c(NCC4CCOCC4)cc(Oc4ccccc4)nc23)ccc1C(=O)NC1CC1 [Example B1] | ≤ 100 | ≤ 100 | ≤ 100 | < 100 | ≤ 100 | ≤ 100
COCCNc1cc(Oc2ccccc2)nc2c(-c3ccc(C(=O)NC4CC4)cc3)cnn12 [Example B2, N-cyclopropyl-4-(7-((2-methoxyethyl)amino)-5-phenoxypyrazolo[1,5-a]pyrimidin-3-yl)benzamide] | 100 to 500 | > 500 | > 500 | < 100 | 100 to 500 | > 500
O=C(NC1CC1)c1ccc(-c2cnn3c(NCC4CCOCC4)cc(Oc4ccccc4)nc23)cc1 [Example B3, N-cyclopropyl-4-(5-phenoxy-7-(((tetrahydro-2H-pyran-4-yl)methyl)amino)pyrazolo[1,5-a]pyrimidin-3-yl)benzamide] | ≤ 100 | 100 to 500 | 100 to 500 | < 100 | 100 to 500 | ≤ 100
Cc1cc(-c2cnn3c(NCCN4CCOCC4)cc(Oc4ccccc4)nc23)ccc1C(=O)NC1CC1 [Example B5, N-cyclopropyl-2-methyl-4-(7-((2-morpholinoethyl)amino)-5-phenoxypyrazolo[1,5-a]pyrimidin-3-yl)benzamide] | ≤ 100 | ≤ 100 | ≤ 100 | < 100 | ≤ 100 | ≤ 100
O=C(NC1CC1)c1ccc(-c2cnn3c(NCCN4CCOCC4)cc(Oc4ccccc4)nc23)cc1 [Example B6, N-cyclopropyl-4-(7-((2-morpholinoethyl)amino)-5-phenoxypyrazolo[1,5-a]pyrimidin-3-yl)benzamide] | ≤ 100 | 100 to 500 | 100 to 500 | < 100 | 100 to 500 | 100 to 500
O=C(NC1CC1)c1ccc(-c2cnn3c(NCC4CCOCC4)cc(Oc4ccccc4)nc23)cc1Cl [Example B7, 2-chloro-N-cyclopropyl-4-(5-phenoxy-7-(((tetrahydro-2H-pyran-4-yl)methyl)amino)pyrazolo[1,5-a]pyrimidin-3-yl)benzamide] | ≤ 100 | ≤ 100 | ≤ 100 | < 100 | ≤ 100 | ≤ 100
O=C(NC1CC1)c1ccc(-c2cnn3c(NCC4CCOCC4)cc(Oc4ccccc4)nc23)cc1F [Example B8, N-cyclopropyl-2-fluoro-4-(5-phenoxy-7-(((tetrahydro-2H-pyran-4-yl)methyl)amino)pyrazolo[1,5-a]pyrimidin-3-yl)benzamide] | ≤ 100 | 100 to 500 | 100 to 500 | < 100 | 100 to 500 | 100 to 500

Continued, values first:

GI50 [1] [nM] | GI50 [2] [nM] | GI50 [3] [nM] | IC50 [4] [nM] | GI50 [5] [nM] | GI50 [6] [nM] | SMILES
100 to 500 | > 500 | > 500 | < 100 | 100 to 500 | 100 to 500 | CCC(CO)Nc1cc(NCC2CCOCC2)n2ncc(-c3ccc(C(=O)NC4CC4)c(C)c3)c2n1 (stereo in doubt) [Example B29, (R)-N-cyclopropyl-4-(5-((1-hydroxybutan-2-yl)amino)-7-(((tetrahydro-2H-pyran-4-yl)methyl)amino)pyrazolo[1,5-a]pyrimidin-3-yl)-2-methylbenzamide]
≤ 100 | ≤ 100 | ≤ 100 | < 100 | ≤ 100 | ≤ 100 | Cc1cc(-c2cnn3c(NCC4CCOCC4)cc(Oc4cccnc4)nc23)ccc1C(=O)NC1CC1 [Example B9, N-cyclopropyl-2-methyl-4-(5-(pyridin-3-yloxy)-7-(((tetrahydro-2H-pyran-4-yl)methyl)amino)pyrazolo[1,5-a]pyrimidin-3-yl)benzamide]
≤ 100 | ≤ 100 | ≤ 100 | < 100 | ≤ 100 | ≤ 100 | Cc1cc(-c2cnn3c(NCC4CCOCC4)cc(Oc4cccc(F)c4)nc23)ccc1C(=O)NC1CC1 [Example B12, N-cyclopropyl-4-(5-(3-fluorophenoxy)-7-(((tetrahydro-2H-pyran-4-yl)methyl)amino)pyrazolo[1,5-a]pyrimidin-3-yl)-2-methylbenzamide]
≤ 100 | 100 to 500 | ≤ 100 | < 100 | ≤ 100 | ≤ 100 | COCCNc1cc(Oc2ccccc2)nc2c(-c3ccc(C(=O)NC4CC4)c(C)c3)cnn12 [Example B13, N-cyclopropyl-4-(7-((2-methoxyethyl)amino)-5-phenoxypyrazolo[1,5-a]pyrimidin-3-yl)-2-methylbenzamide]
≤ 100 | ≤ 100 | ≤ 100 | < 100 | ≤ 100 | ≤ 100 | Cc1cc(-c2cnn3c(NCC4CCOCC4)cc(NC4CCCC4)nc23)ccc1C(=O)NC1CC1 [Example B14, 4-(5-(cyclopentylamino)-7-(((tetrahydro-2H-pyran-4-yl)methyl)amino)pyrazolo[1,5-a]pyrimidin-3-yl)-N-cyclopropyl-2-methylbenzamide]
≤ 100 | 100 to 500 | 100 to 500 | < 100 | 100 to 500 | 100 to 500 | Cc1cc(-c2cnn3c(NCCCN4CCOCC4)cc(Oc4ccccc4)nc23)ccc1C(=O)NC1CC1 [Example B19, N-cyclopropyl-2-methyl-4-(7-((3-morpholinopropyl)amino)-5-phenoxypyrazolo[1,5-a]pyrimidin-3-yl)benzamide]
≤ 100 |  | ≤ 100 | < 100 |  | ≤ 100 | Cc1cc(-c2cnn3c(NC[C@H]4CC[C@H](O)CC4)cc(Oc4ccccc4)nc23)ccc1C(=O)NC1CC1 [Example B31, N-cyclopropyl-4-(7-((((1r,4r)-4-hydroxycyclohexyl)-methyl)amino)-5-phenoxypyrazolo[1,5-a]pyrimidin-3-yl)-2-methylbenzamide]
